Measurements as given in US20110092544A1, “FUNGICIDAL PYRIDINES” (E.I. DU PONT DE nemours and company, priority 2008, published 2011).

Columns and labels:
[1] = system: Puccinia recondite f. sp. tritici; experiment: Test B: wheat leaf rust, preventive spray on wheat seedlings, visual disease rating; assay type: in vivo; settings: for Test B rating (% disease control) / pest or weed control at 200 ppm: 200 ppm, 100 = 100% disease control, 0 = no control; for pest or weed control at 200 ppm / pest or weed control at 40 ppm: 192 h; for pest or weed control at 40 ppm: 40 ppm (compound number followed by *)
Outline: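 Wheat seedlings were sprayed to run-off with compound suspension, 200 ppm (≈500 g/ha) or 40 ppm where marked, containing surfactant in acetone/water. Inoculation with Puccinia recondita spores followed one day later, then 24 h in saturated humidity at 20° C and 7 days at 20° C. Disease control was rated visually, 0–100% versus controls.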

[2] = system: Septoria tritici; experiment: Test C: wheat leaf blotch, preventive spray on wheat seedlings, visual disease rating; assay type: in vivo; settings: for Test C rating (% disease control) / pest or weed control at 200 ppm: 200 ppm, 100 = 100% disease control, 0 = no control; for pest or weed control at 200 ppm / pest or weed control at 40 ppm: Zymoseptoria tritici, 504 h; for pest or weed control at 40 ppm: 40 ppm (compound number followed by *)
Outline: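 Wheat seedlings sprayed to run-off with compound in acetone/water plus 250 ppm surfactant at 200 ppm (≈500 g/ha), or 40 ppm where marked; inoculated with Septoria tritici next day. Held saturated at 20 °C for 48 h, then 19 days at 20 °C; disease control rated visually 0–100 versus controls.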

[3] = system: Rhizoctonia oryzae; experiment: Test G: turf brown patch, preventive spray on creeping bent grass seedlings, visual disease rating; assay type: in vivo; settings: 200 ppm, 100 = 100% disease control, 0 = no control; for pest or weed control at 200 ppm: Waitea circinata, in Agrostis stolonifera, 120 h
Source text: General protocol for preparing test suspensions for Tests A-H: The test compounds were first dissolved in acetone in an amount equal to 3% of the final volume and then suspended at the desired concentration (in ppm) in acetone and purified water (50/50 mix) containing 250 ppm of the surfactant Trem® 014 (polyhydric alcohol esters). The resulting test suspensions were then used in tests A-H. Spraying a 200 ppm test suspension to the point of run-off on the test plants was the equivalent of a rate of 500 g/ha.
The test suspension was sprayed to the point of run-off on creeping bent grass seedlings. The following day the seedlings were inoculated with a spore suspension of Rhizoctonia oryzae (the causal agent of turf brown patch) and incubated in a saturated atmosphere at 27° C. for 48 h, and then moved to a growth chamber at 27° C. for 3 days, after which time disease ratings were visually made.
Results for Tests A-H are given in Table A. In the table, a rating of 100 indicates 100% disease control and a rating of 0 indicates no disease control (relative to the controls). A dash (-) indicates no test results. All results are for compounds tested at 200 ppm except where the compound number is followed by “*” which indicates the compound was tested at 40 ppm.

[4] = system: Septoria nodorum; experiment: Test D: wheat glume blotch, preventive spray on wheat seedlings, visual disease rating; assay type: in vivo; settings: for Test D rating (% disease control) / pest or weed control at 200 ppm: 200 ppm, 100 = 100% disease control, 0 = no control; for pest or weed control at 200 ppm / pest or weed control at 40 ppm: Parastagonospora nodorum, 216 h; for pest or weed control at 40 ppm: 40 ppm (compound number followed by *)
Outline: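 Compounds in 3% acetone, then 50/50 acetone–water with 250 ppm Trem 014, sprayed to run-off at 200 ppm (500 g/ha; some at 40 ppm) one day before spore inoculation. Held 48 h saturated at 20 °C, then 7 days at 20 °C; visual rating as % disease control vs untreated (0–100).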

[5] = system: Alternaria solani; experiment: Test E: tomato early blight, preventive spray on tomato seedlings, visual disease rating; assay type: in vivo; settings: for Test E rating (% disease control) / pest or weed control at 200 ppm: 200 ppm, 100 = 100% disease control, 0 = no control; for pest or weed control at 200 ppm / pest or weed control at 40 ppm: Alternaria solani, 168 h; for pest or weed control at 40 ppm: 40 ppm (compound number followed by *)
Outline: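 Seedlings sprayed to run-off with compound in acetone/water plus 250 ppm Trem 014 (200 ppm ≈ 500 g/ha), inoculated with spores next day. Held 48 h saturated at 27 °C, then 5 days at 20 °C; visual rating 0–100% disease control relative to controls.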

[6] = system: Botrytis cinerea; experiment: Test F: tomato botrytis, preventive spray on tomato seedlings, visual disease rating; assay type: in vivo; settings: for Test F rating (% disease control) / pest or weed control at 200 ppm: 200 ppm, 100 = 100% disease control, 0 = no control; for pest or weed control at 200 ppm / pest or weed control at 40 ppm: Botrytis cinerea, 120 h; for pest or weed control at 40 ppm: 40 ppm (compound number followed by *)
Outline: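 Tomato seedlings sprayed to run-off with compound suspended in acetone/water (50/50) plus 250 ppm Trem 014, at 200 ppm (≈500 g/ha) or 40 ppm where marked. Inoculated next day with B. cinerea spores, 48 h saturated atmosphere at 20 °C, then 3 days at 24 °C. Visual rating, 0–100% disease control relative to controls.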

[7] = system: Erysiphe graminis f. sp. tritici; experiment: Test A: wheat powdery mildew, preventive spray on wheat seedlings, visual disease rating; assay type: in vivo; settings: for Test A rating (% disease control) / pest or weed control at 200 ppm: 200 ppm, 100 = 100% disease control, 0 = no control; for pest or weed control at 200 ppm / pest or weed control at 40 ppm: Blumeria graminis, 192 h; for pest or weed control at 40 ppm: 40 ppm (compound number followed by *)
Outline: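 Acetone/water (50/50) suspension with 250 ppm surfactant sprayed to run-off on wheat seedlings (200 ppm ≈ 500 g/ha); inoculated next day with E. graminis spore dust. Incubated 8 days at 20° C, then visually rated 0–100% disease control versus untreated controls; tests at 200 ppm or 40 ppm.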

[8] = system: Plasmopara viticola; experiment: Test H: grape downy mildew, spray after inoculation of grape seedlings, visual disease rating; assay type: in vivo; settings: 200 ppm, 100 = 100% disease control, 0 = no control; for pest or weed control at 200 ppm: Plasmopara viticola, 192 h

SMILES | Test B rating (% disease control) [1] [%] | Test C rating (% disease control) [2] [%] | Test G rating (% disease control) [3] [%] | Test D rating (% disease control) [4] [%] | Test E rating (% disease control) [5] [%] | Test F rating (% disease control) [6] [%] | Test A rating (% disease control) [7] [%] | Test H rating (% disease control) [8] [%] | pest or weed control at 200 ppm [1] [%] | pest or weed control at 200 ppm [4] [%] | pest or weed control at 200 ppm [5] [%] | pest or weed control at 200 ppm [6] [%] | pest or weed control at 200 ppm [7] [%] | pest or weed control at 40 ppm [1] [%] | pest or weed control at 40 ppm [2] [%] | pest or weed control at 40 ppm [4] [%] | melting point [°C] | pest or weed control at 40 ppm [5] [%] | pest or weed control at 40 ppm [6] [%] | pest or weed control at 40 ppm [7] [%] | further results
COc1cc(OC)cc(-c2c(-c3ccccc3F)cnc(C)c2-c2ccc(F)cc2)c1 [Compound 35] | 100 | 99 | 99 | 99 | 99 | 99 | 99 | 0 | – | – | – | – | – | – | – | – | – | – | – | – | –
COc1cc(OC)cc(-c2c(-c3ccc(F)cc3)cnc(C)c2-c2ccccc2)c1 [Compound 36] | 0 | 93 | 14 | 0 | 30 | 94 | 65 | 0 | – | – | – | – | – | – | – | – | – | – | – | – | –
COc1cc(OC)cc(-c2c(-c3ccc(F)cc3F)cnc(C)c2-c2ccc(F)cc2)c1 [Compound 38] | 80 | 100 | 56 | 0 | 87 | 98 | 95 | 0 | – | – | – | – | – | – | – | – | – | – | – | – | –
COc1cc(OC)cc(-c2c(-c3ccccc3F)c[n+]([O-])c(C)c2-c2ccc(F)cc2)c1 [Compound 39, 4-(3,5-dimethoxyphenyl)-5-(2-fluorophenyl)-3-(4-fluorophenyl)-2-methylpyridine 1-oxide] | – | – | – | – | – | – | – | – | 100 | 100 | 100 | 94 | 98 | – | – | – | – | – | – | – | pest or weed control at 200 ppm [2]: 100%; pest or weed control at 200 ppm [3]: 35%; pest or weed control at 200 ppm [8]: 0%
COc1cc(OC)cc(-c2c(C(C)=O)cnc(C)c2-c2c(F)cc(F)cc2F)c1 [Compound 40, 1-[4-(3,5-dimethoxyphenyl)-6-methyl-5-(2,4,6-trifluorophenyl)-3-pyridinyl]ethanone] | – | – | – | – | – | – | – | – | 80 | 0 | 97 | 90 | 94 | – | – | – | – | – | – | – | pest or weed control at 200 ppm [2]: 87%; pest or weed control at 200 ppm [3]: 49%; pest or weed control at 200 ppm [8]: 0%
COc1cc(OC)cc(-c2c(C(C)=O)cnc(C)c2-c2c(F)cccc2F)c1 [Compound 41] | 98 | 99 | 99 | 0 | 99 | 98 | 100 | 0 | – | – | – | – | – | – | – | – | – | – | – | – | –
COc1cc(OC)cc(-c2c(-c3ccccc3F)cnc(C)c2-c2c(F)cc(F)cc2F)c1 [Compound 89, 4-(3,5-dimethoxyphenyl)-5-(2-fluorophenyl)-2-methyl-3-(2,4,6-trifluorophenyl)pyridine] | – | – | – | – | – | – | – | – | – | – | – | – | – | 100 | 97 | 99 | 123 to 127 | 99 | 100 | 100 | –
COc1cc(OC)cc(-c2c(CCl)cnc(C)c2-c2c(F)cc(F)cc2F)c1 [Compound 110, 5-(chloromethyl)-4-(3,5-dimethoxyphenyl)-2-methyl-3-(2,4,6-trifluorophenyl)pyridine] | – | – | – | – | – | – | – | – | 100 | 87 | 100 | 99 | 100 | – | – | – | 110 to 115 | – | – | – | pest or weed control at 200 ppm [2]: 96%
COc1cc(OC)cc(-c2c(CC#N)cnc(C)c2-c2c(F)cc(F)cc2F)c1 [Compound 124, 4-(3,5-dimethoxyphenyl)-6-methyl-5-(2,4,6-trifluorophenyl)-3-pyridineacetonitrile] | – | – | – | – | – | – | – | – | – | – | – | – | – | 100 | 99 | 100 | 131 to 133 | 100 | 100 | 100 | –
CCOC(=O)c1cnc(C)c(-c2c(F)cc(F)cc2F)c1-c1cc(OC)cc(OC)c1 [Compound 130, ethyl 4-(3,5-dimethoxyphenyl)-6-methyl-5-(2,4,6-trifluorophenyl)-3-pyridinecarboxylate] | – | – | – | – | – | – | – | – | 93 | 0 | 99 | 100 | 100 | – | – | – | 93 to 95 | – | – | – | –
COc1cc(OC)c(Cl)c(-c2c(CC#N)cnc(C)c2-c2c(F)cc(F)cc2F)c1 [Compound 133, 4-(2-chloro-3,5-dimethoxyphenyl)-6-methyl-5-(2,4,6-trifluorophenyl)-3-pyridineacetonitrile] | – | – | – | – | – | – | – | – | – | – | – | – | – | 100 | 100 | 95 | 159 to 165 | 99 | 100 | 98 | –
CCc1cnc(C)c(-c2c(F)cc(F)cc2F)c1-c1cc(OC)cc(OC)c1 [Compound 137, 4-(3,5-dimethoxyphenyl)-5-ethyl-2-methyl-3-(2,4,6-trifluorophenyl)pyridine] | – | – | – | – | – | – | – | – | – | – | – | – | – | 100 | 100 | 97 | 102 to 105 | 99 | 100 | 100 | –
